target: (Homo sapiens, UniProt P43220); test: h-GLP-1 activity assay (cAMP HTRF, HEK293 cells with stable expression of human GLP-1); assay type: cell-based; conditions: relative EC50, 10 nM human GLP-1 set as 100% response, 30 min at 37° C.
Procedure: Human GLP-1 agonizing activity was detected in HEK293 cells with stable expression of human GLP-1 by Cisbio cAMP Gs dynamic kit (Catalog #62AM4PEC) according to manufacturer's protocol. Briefly, cells were collected and resuspended in assay buffer containing 0.1% BSA and 0.5 mM of IBMX at concentration to 2.5×10^5 cells/mL. Two μL 5× compound solution and 8 μL cell suspension were added to each well of low-volume 384 white assay plate. After 30 min incubation at 37° C., 5 μL cAMP-d2 working solution and 5 μL anti-cAMP antibody-cryptate were added to each well, and incubate at room temperature for 1 hr. Series dilution of cAMP was used as standard. Human GLP-1 (7-37) was used as positive control and 10 nM human GLP-1 was set as 100% response. HTRF signals were read at 665 and 615 nm with EnVision plate reader and calculated cAMP concentration by interpolation to the standard curve. The EC50 value of the tested compounds was calculated by fitting the dose response curve using a 4-parameter non-linear regression routine and relative EC50 was presented in Table 29.

Sequence of (Homo sapiens, UniProt P43220) (P43220 24-463): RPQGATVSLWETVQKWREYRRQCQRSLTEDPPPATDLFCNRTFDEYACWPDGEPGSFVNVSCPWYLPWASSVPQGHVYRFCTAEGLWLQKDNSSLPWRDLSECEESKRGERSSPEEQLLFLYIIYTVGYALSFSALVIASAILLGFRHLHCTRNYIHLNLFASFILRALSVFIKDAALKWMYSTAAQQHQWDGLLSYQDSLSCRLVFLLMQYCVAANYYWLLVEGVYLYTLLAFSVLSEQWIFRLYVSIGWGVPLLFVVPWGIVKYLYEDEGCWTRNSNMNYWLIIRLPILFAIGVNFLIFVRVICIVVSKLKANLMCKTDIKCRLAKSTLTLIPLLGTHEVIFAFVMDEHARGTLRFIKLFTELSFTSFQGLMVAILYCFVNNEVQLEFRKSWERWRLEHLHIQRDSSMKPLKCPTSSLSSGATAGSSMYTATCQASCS

Q: Which EC50 does the source give for `C[C@H]1c2c(-n3ccn(-c4ccc5c(cnn5C)c4F)c3=O)c(-c3ccc(F)cc3)nn2CCN1C(=O)c1cn2cc([C@@H]3CCOC(C)(C)C3)ccc2c1C1(c2noc(=O)[nH]2)CC1` (single isomer, unassigned) [Compound 14] here?
A: < 20 nM

Q: How did the EC50 turn out when `Cc1cc(-n2nc3c(c2-n2ccn(-c4ccn5cncc5c4)c2=O)[C@H](C)N(C(=O)c2cn4cc([C@H]5CCOC(C)(C)C5)ccc4c2C2(c4noc(=O)[nH]4)CC2)CC3)cc(C)c1F` (single isomer, unassigned) [Compound 16] was run?
A: 20 to 100 nM

Q: `Cc1cc(-n2nc3c(c2-n2ccn(-c4ccn5c(C)ncc5c4)c2=O)[C@H](C)N(C(=O)c2cn4cc([C@@H]5CCOC(C)(C)C5)ccc4c2C2(c4noc(=O)[nH]4)CC2)CC3)cc(C)c1F` (single isomer, unassigned) [Compound 17] was tested. Which EC50 did it give?
A: < 20 nM

Q: Which EC50 does the source give for `Cc1cc(-n2nc3c(c2-n2ccn(-c4ccn5c(C)ncc5c4)c2=O)[C@H](C)N(C(=O)c2cn4cc([C@H]5CCOC(C)(C)C5)ccc4c2C2(c4noc(=O)[nH]4)CC2)CC3)cc(C)c1F` (single isomer, unassigned) [Compound 18] here?
A: < 20 nM

Q: `Cc1cc(-n2nc3c(c2-n2ccn(-c4ccc5c(cnn5C)c4F)c2=O)[C@H](C)N(C(=O)c2cn4cc([C@H]5CCOC(C)(C)C5)ccc4c2C2(c4noc(=O)[nH]4)CC2)CC3)cc(C)c1F` (single isomer, unassigned) [Compound 20] was tested. Which EC50 did it give?
A: 20 to 100 nM

Q: With `Cc1cc(-n2nc3c(c2-n2ccn(-c4ccc5c(cnn5C)c4F)c2=O)[C@H](C)N(C(=O)c2cn4cc([C@@H]5CCOC(C)(C)C5)ccc4c2Cc2noc(=O)[nH]2)CC3)cc(C)c1F` (single isomer, unassigned) [Compound 21] as the molecule, how does the EC50 read?
A: < 20 nM

Q: With `Cc1cc(-n2nc3c(c2-n2ccn(-c4ccc5c(cnn5C)c4F)c2=O)[C@H](C)N(C(=O)c2cn4cc([C@H]5CCOC(C)(C)C5)ccc4c2Cc2noc(=O)[nH]2)CC3)cc(C)c1F` (single isomer, unassigned) [Compound 22] as the molecule, how does the EC50 read?
A: 20 to 100 nM

Q: `Cc1cc(-c2nn3c(c2-n2ccn(-c4ccc5c(cnn5C)c4F)c2=O)[C@@H](C)N(C(=O)c2cc4cc([C@@H]5CCOC(C)(C)C5)ccc4n2C2(c4noc(=O)[nH]4)CC2)CC3)cc(C)c1F` (single isomer, unassigned) [Compound 24] was tested. Which EC50 did it give?
A: < 20 nM

Q: Which EC50 does the source give for `Cc1cc(-c2nn3c(c2-n2ccn(-c4ccc5c(cnn5C)c4F)c2=O)[C@H](C)N(C(=O)c2cc4cc([C@@H]5CCOC(C)(C)C5)ccc4n2C2(c4noc(=O)[nH]4)CC2)CC3)cc(C)c1F` (single isomer, unassigned) [Compound 25] here?
A: > 100 nM

Q: How did the EC50 turn out when `Cc1cc(-c2nn3c(c2-n2ccn(-c4ccc5c(cnn5C)c4F)c2=O)[C@H](C)N(C(=O)c2cc4cc([C@@H]5CCOC(C)(C)C5)ccc4n2C2(c4noc(=O)[nH]4)CC2)CC3)ccc1F` (single isomer, unassigned) [Compound 26] was run?
A: < 20 nM

Q: How did the EC50 turn out when `Cc1cc(-c2nn3c(c2-n2ccn(-c4ccc5c(cnn5C)c4F)c2=O)[C@@H](C)N(C(=O)c2cc4cc([C@@H]5CCOC(C)(C)C5)ccc4n2C2(c4noc(=O)[nH]4)CC2)CC3)ccc1F` (single isomer, unassigned) [Compound 27] was run?
A: > 100 nM

Q: How did the EC50 turn out when `COc1ccc(-c2nn3c(c2-n2ccn(-c4ccc5c(cnn5C)c4F)c2=O)C(C)N(C(=O)c2cc4cc([C@@H]5CCOC(C)(C)C5)ccc4n2C2(c4noc(=O)[nH]4)CC2)CC3)cc1` (single isomer, unassigned) [Compound 28] was run?
A: 20 to 100 nM

Q: Which EC50 does the source give for `COCC12CCC(n3ccn(-c4c(-c5ccc(F)cc5)nn5c4[C@H](C)N(C(=O)c4cc6cc([C@@H]7CCOC(C)(C)C7)ccc6n4C4(c6noc(=O)[nH]6)CC4)CC5)c3=O)(CC1)CC2` (single isomer, unassigned) [Compound 29] here?
A: 20 to 100 nM

Q: With `C[C@H]1c2c(-n3ccn(-c4ccc5c(cnn5C)c4F)c3=O)c(-c3ccc(F)cc3)nn2CCN1C(=O)c1cc2cc([C@H]3CCOC(C)(C)C3)ccc2n1C1(c2noc(=O)[nH]2)CC1` (single isomer, unassigned) [Compound 31] as the molecule, how does the EC50 read?
A: > 100 nM

Q: How did the EC50 turn out when `C[C@@H]1c2c(-n3ccn(-c4ccc5c(cnn5C)c4F)c3=O)c(-c3ccc(F)cc3)nn2CCN1C(=O)c1cc2cc([C@H]3CCOC(C)(C)C3)ccc2n1C1(c2noc(=O)[nH]2)CC1` (single isomer, unassigned) [Compound 32] was run?
A: > 100 nM

Q: With `C[C@H]1c2c(-n3ccn(-c4ccc5c(cnn5C)c4F)c3=O)c(-c3ccc(F)cc3)nn2CCN1C(=O)c1cc2cc([C@@H]3CCOC(C)(C)C3)ccc2n1C1(c2noc(=O)[nH]2)CC1` (single isomer, unassigned) [Compound 33] as the molecule, how does the EC50 read?
A: < 20 nM

Q: For `C[C@@H]1c2c(-n3ccn(-c4ccc5c(cnn5C)c4F)c3=O)c(-c3ccc(F)cc3)nn2CCN1C(=O)c1cc2cc([C@@H]3CCOC(C)(C)C3)ccc2n1C1(c2noc(=O)[nH]2)CC1` (single isomer, unassigned) [Compound 34], which EC50 is on record?
A: > 100 nM

Q: Which EC50 does the source give for `C[C@H](c1ccc(F)cc1)n1nc2c(c1-n1ccn(-c3ccc4c(cnn4C)c3F)c1=O)[C@H](C)N(C(=O)c1cc3cc([C@@H]4CCOC(C)(C)C4)ccc3n1C1(c3noc(=O)[nH]3)CC1)CC2` (single isomer, unassigned) [Compound 38] here?
A: < 20 nM

Q: `C[C@H]1c2c(nn([C@@H](C)c3ccc(F)cc3)c2-n2ccn(-c3ccc4c(cnn4C)c3F)c2=O)CCN1C(=O)c1cc2cc([C@H]3CCOC(C)(C)C3)ccc2n1C1(c2noc(=O)[nH]2)CC1` (single isomer, unassigned) [Compound 39] was tested. Which EC50 did it give?
A: > 100 nM

Q: For `C[C@H]1c2c(nn([C@@H](C)c3ccc(F)cc3)c2-n2ccn(-c3ccc4c(cnn4C)c3F)c2=O)CCN1C(=O)c1cc2cc([C@@H]3CCOC(C)(C)C3)ccc2n1C1(c2noc(=O)[nH]2)CC1` (single isomer, unassigned) [Compound 40], which EC50 is on record?
A: < 20 nM

Q: `C[C@H](c1ccc(F)cc1)n1nc2c(c1-n1ccn(-c3ccc4c(cnn4C)c3F)c1=O)[C@H](C)N(C(=O)c1cc3cc([C@H]4CCOC(C)(C)C4)ccc3n1C1(c3noc(=O)[nH]3)CC1)CC2` (single isomer, unassigned) [Compound 41] was tested. Which EC50 did it give?
A: > 100 nM

Q: `C[C@H]1c2c(nn(C3CCC(F)(F)CC3)c2-n2ccn(-c3ccc4c(cnn4C)c3F)c2=O)CCN1C(=O)c1cc2cc([C@H]3CCOC(C)(C)C3)ccc2n1C1(c2noc(=O)[nH]2)CC1` (single isomer, unassigned) [Compound 43] was tested. Which EC50 did it give?
A: > 100 nM

Q: Which EC50 does the source give for `C[C@H]1c2c(nn(C3CCC(F)(F)CC3)c2-n2ccn(-c3ccc4c(cnn4C)c3F)c2=O)CCN1C(=O)c1cc2cc([C@@H]3CCOC(C)(C)C3)ccc2n1C1(c2noc(=O)[nH]2)CC1` (single isomer, unassigned) [Compound 44] here?
A: < 20 nM

Q: How did the EC50 turn out when `Cc1cc(-n2nc3c(c2-n2ccn(-c4ccc5c(cnn5C)c4F)c2=O)[C@H](C)N(C(=O)c2cc4cc([C@H]5CCOC(C)(C)C5)ccc4n2Cc2cnc(O)s2)CC3)cc(C)c1F` (single isomer, unassigned) [Compound 45] was run?
A: > 100 nM

Q: How did the EC50 turn out when `Cc1cc(-n2nc3c(c2-n2ccn(-c4ccc5c(cnn5C)c4F)c2=O)[C@H](C)N(C(=O)c2cc4cc([C@@H]5CCOC(C)(C)C5)ccc4n2Cc2cnc(O)s2)CC3)cc(C)c1F` (single isomer, unassigned) [Compound 46] was run?
A: 20 to 100 nM

Q: `C[C@@H]1c2c(-n3ccn(-c4ccc5c(cnn5C)c4F)c3=O)c(-c3ccc(F)c(Cl)c3)nn2CCN1C(=O)c1cc2cc([C@@H]3CCOC(C)(C)C3)ccc2n1C1(c2noc(=O)[nH]2)CC1` (single isomer, unassigned) [Compound 49] was tested. Which EC50 did it give?
A: < 20 nM

Q: With `C[C@H]1c2c(-n3ccn(-c4ccc5c(cnn5C)c4F)c3=O)c(-c3ccc(F)c(Cl)c3)nn2CCN1C(=O)c1cc2cc([C@@H]3CCOC(C)(C)C3)ccc2n1C1(c2noc(=O)[nH]2)CC1` (single isomer, unassigned) [Compound 50] as the molecule, how does the EC50 read?
A: > 100 nM

Q: Which EC50 does the source give for `C[C@@H]1c2c(-n3ccn(-c4ccc5c(cnn5C)c4F)c3=O)c(-c3cc(Cl)c(F)c(Cl)c3)nn2CCN1C(=O)c1cc2cc([C@@H]3CCOC(C)(C)C3)ccc2n1C1(c2noc(=O)[nH]2)CC1` (single isomer, unassigned) [Compound 51] here?
A: < 20 nM

Q: Which EC50 does the source give for `C[C@H]1c2c(-n3ccn(-c4ccc5c(cnn5C)c4F)c3=O)c(-c3cc(Cl)c(F)c(Cl)c3)nn2CCN1C(=O)c1cc2cc([C@@H]3CCOC(C)(C)C3)ccc2n1C1(c2noc(=O)[nH]2)CC1` (single isomer, unassigned) [Compound 52] here?
A: > 100 nM

Q: For `COCC12CCC(n3ccn(-c4c(-c5ccc(F)cc5)nn5c4[C@H](C)N(C(=O)c4cc6cc(C7CCOCC7)ccc6n4Cc4noc(=O)[nH]4)CC5)c3=O)(CC1)CC2` (single isomer, unassigned) [Compound 53], which EC50 is on record?
A: > 100 nM

Q: How did the EC50 turn out when `C[C@H]1c2c(nn(C34CC(C3)C4)c2-n2ccn(-c3ccc4c(cnn4C)c3F)c2=O)CCN1C(=O)c1cc2cc([C@H]3CCOC(C)(C)C3)ccc2n1C1(c2noc(=O)[nH]2)CC1` (single isomer, unassigned) [Compound 60] was run?
A: < 20 nM

Q: For `C[C@H]1c2c(nn(C34CC(C3)C4)c2-n2ccn(-c3ccc4c(cnn4C)c3F)c2=O)CCN1C(=O)c1cc2cc([C@@H]3CCOC(C)(C)C3)ccc2n1C1(c2noc(=O)[nH]2)CC1` (single isomer, unassigned) [Compound 61], which EC50 is on record?
A: 20 to 100 nM

Q: With `COCC12CCC(n3ccn(-c4c(-c5ccc(F)cc5)nn5c4[C@H](C)N(C(=O)c4cc6cc([C@@H]7CCOC(C)(C)C7)ccc6n4[C@@]4(c6noc(=O)[nH]6)C[C@@H]4C)CC5)c3=O)(CC1)CC2` (single isomer, unassigned) [Compound 62] as the molecule, how does the EC50 read?
A: 20 to 100 nM

Q: `COCC12CCC(n3ccn(-c4c(-c5ccc(F)cc5)nn5c4[C@H](C)N(C(=O)c4cc6cc([C@H]7CCOC(C)(C)C7)ccc6n4[C@@]4(c6noc(=O)[nH]6)C[C@@H]4C)CC5)c3=O)(CC1)CC2` (single isomer, unassigned) [Compound 63] was tested. Which EC50 did it give?
A: > 100 nM
